Reference: patent US7109323B2, “Formulation of boronic acid compounds” (The United States of America as represented by the …, priority 2001, dated 2006)

Assays:
Format in all cases: physicochemical
[1] = reconstitution / dissolution of the formulation in aqueous solvents; conditions: 0.9% w/v saline, saline or isotonic, thermodynamic from solid; read-out: solubility (concentration dissolved)
Protocol: One sample was reconstituted with 2 mL of water. Dissolution was complete within 1-2 minutes of shaking. The entire solution was transferred to a volumetric flask, diluted, and analyzed by HPLC for content of N-(2-pyrazine)carbonyl-L-phenylalanine-L-leucine boronic acid. The total drug content was 1.09 mg. A second sample was reconstituted with 1 mL of propylene glycol:EtOH:H2O, 40:10:50. Dissolution was complete with 1 minute of shaking. The total drug content was 1.11 mg.
The lyophilized formulation was also reconstituted with 0.9% w/v saline. The lyophilized material dissolved readily at concentrations up to 6 mg/mL.
(§1) The lyophilized product was prepared according to Example 1, and samples (2.5 mg/vial) were reconstituted with 2.5 mL of 0.9% w/v sterile saline. […] No special care was taken to protect the solution from light.

[2] = storage stability determined by HPLC analysis
Protocol: The product was obtained as a white amorphous powder. The product was stable for more than 2 years when stored at −20° C., as determined by HPLC analysis (purity >97%). When stored at 2-8° C., the product was not stable for longer than 3-6 months.
When stored at 2-8° C., the liquid formulation was not stable for longer than 6 months, as determined by HPLC analysis.
The lyophilized product was prepared according to Example 1 and stored at 5° C., ambient temperature, 37° C., and 50° C. Stability was monitored for approximately 18 months by periodically reconstituting a sample and analyzing the entire contents of the bottle by HPLC.
as §1

[3] = dynamic vapor sorption studies; conditions: crystalline product

SMILES | solubility [1] [µg/mL] | time stable on storage ([2]; stored at 2-8° C., HPLC analysis) | time stable on storage ([2]; stored at −20° C., HPLC analysis (purity >97%)) | hygroscopicity [3]
CC(C)C[C@H](NC(=O)[C@H](Cc1ccccc1)NC(=O)c1cnccn1)B(O)O [N-(2-pyrazine)carbonyl-L-phenylalanine-L-leucine boronic acid] | < 1000 | 3-6 months | more than 2 years | 
CC(C)C[C@H](NC(=O)[C@H](Cc1ccccc1)NC(=O)c1cnccn1)B1OB([C@H](CC(C)C)NC(=O)[C@H](Cc2ccccc2)NC(=O)c2cnccn2)OB([C@H](CC(C)C)NC(=O)[C@H](Cc2ccccc2)NC(=O)c2cnccn2)O1 [N-(2-pyrazine)carbonyl-L-phenylalanine-L-leucine boroxine] |  |  |  | non-hygroscopic
